Biological target: T1, BurG (Burkholderia thailandensis, UniProt Q2T3G7)
T1 construct: gene ilvC-2

For `NC(=O)C1=CN([C@@H]2O[C@H](COP(=O)(O)OP(=O)(O)OC[C@H]3O[C@@H](n4cnc5c(N)ncnc54)[C@H](O)[C@@H]3O)[C@@H](O)[C@H]2O)C=CC1` [NADH], which “X-ray co-crystal structure, 2.05 Å” value is on record?
The value was “complexed between the two magnesium atoms and NADH in the active site”.

From paper PMC9359912, “Pathogenic bacteria remodel central metabolic enzyme to build a cyclopropanol warhead” (Nature Chemistry, 2022)
